Results published in US8377876B2, “Pediatric amino acid solution for parenteral nutrition” (Fresenius Kabi Deutschland GmbH, priority 2006, dated 2013).
Peptide text beside a SMILES is read from it.

Test: Thermal sterilization of 200 g/l alanyl-glutamine solution; degradation products determined after sterilization
Type: physicochemical
Settings: sterilization at 121° C., 124° C. and 127° C., pH 5 to 6, constant F0 12-12.5
Method: The sterilization temperature is in this connection preferably ≧124° C. and particularly preferably ≧127° C. The pH is preferably between 5 and 6.5. It is possible to reduce the holding times for the thermal sterilization on use of higher temperatures. Under the preferred conditions, distinctly smaller amounts of degradation products are found in the sterilized product (example 3).
A solution of 200 g/l alanyl-glutamine was sterilized at temperatures of 121° C., 124° C. and 127° C. The pH was varied between pH 5, pH 5.5 and pH 6. […] The F0 value describes the sterilization efficiency and corresponds to the holding time at 121.11° C. For sterilization at higher temperatures, the holding times were reduced to maintain a constant F0 value. After the sterilization, the amounts of the degradation products of the dipeptide alanyl-glutamine, cyclo-alanyl-glutamine and L-pyro-alanyl-glutamine were determined. Lower values for these degradation products are a direct indication of the stability of the dipeptide during the sterilization.

C[C@H](N)C(=O)N[C@@H](CCC(N)=O)C(=O)O [alanyl-glutamine, L-Alanyl-L-glutamine] (H-Ala-Gln-OH)
values for the degradation products (stability of the dipeptide during sterilization): fell at higher temperature
